Results published in US5583224A, “Isolation and elucidation of cephalostatin 7, 8 and 9” (Arizona Board of Regents acting on behalf of Arizona State …, priority 1993, dated 1996).

Tests used:
[1] = test system: panel of 60 human tumor cell lines; test: NCI standard human tumor cell line panel (60 cell lines); assay type: cell-based; conditions: for activity against human cancer cell lines: panel of human cancer cell lines employed by NCI
Excerpt: Current research in the control of cancer in the United States is coordinated by the National Cancer Institute (NCI). To determine whether a substance has anti-cancer properties, the NCI has established a systematic protocol. […] The protocol, and the established statistical means for analyzing the results obtained by the standardized testing are fully described in the literature. See: Boyd, Dr. Michael R., Principles & Practice of Oncology, PPO Updates, Volume 3, Number 10, Oct. 1989, for an in depth description of the testing protocol; and Paull, K. D., "Display and Analysis of Patterns of Differential Activity of Drugs Against Human Tumor Cell Lines; Development of Mean Graph and COMPARE Algorithm", Journal of the National Cancer Institute Reports, Vol. 81, No. 14, Page 1088, Jul. 14, 1989 for a description of the methods of statistical analysis. Both of these references are incorporated herein by this reference thereto.

[2] = test system: P388 lymphocytic leukemia cell line; test: P388 lymphocytic leukemia (PS) cell line growth inhibition in vitro; assay type: cell-based, murine
[3] = test system: P388 lymphocytic leukemia cell line; conditions: first chemical study, Pettit et al., J. Am. Chem. Soc 1988; cited from earlier work

| SMILES | activity against other NCI cell lines ([1]; other NCI cell lines) | activity against human cancer cell lines [1] | activity against human cancer cell lines ([1]; listed as cephalostatin 9) | activity against murine P388 lymphocytic leukemia (PS system) [2] | P388 ED50 [3] |
| --- | --- | --- | --- | --- | --- |
| CC1[C@@H]2CC=C3C4CCC5Cc6nc7c(nc6C[C@@]5(C)C4CC(=O)[C@]32CO[C@@]1(O)C(O)CC(C)(C)O)CC1CCC2C3=C[C@H]4O[C@@]5(O[C@@](C)(CO)C[C@@H]5O)C(C)[C@@]4(O)[C@]3(C)[C@@H](O)CC2[C@]1(C)C7 (some centres unmarked) [Cephalostatin 9] | confirmed active level | powerful inhibitors of various human tumor cell lines | very strong and selective activity | confirmed active level | – |
| C[C@@H]1[C@]2(O[C@H]3C=C4[C@@H]5CC[C@H]6Cc7nc8c(nc7C[C@]6(C)[C@H]5C[C@@H](O)[C@]4(C)[C@]31O)C[C@@H]1CC[C@H]3C4=CC[C@@H]5[C@H](C)[C@@]6(OC[C@]45C(=O)C[C@@H]3[C@@]1(C)C8)OC(C)(C)C[C@H]6O)O[C@](C)(CO)C[C@H]2O [cephalostatin 1] | – | – | – | – | 10^-7 to 10^-9 μg/mL |
